“Also recorded” adds a separate entry of the source. Where two headings read alike, the source gives them in different places.
Columns and labels:
Assay type in all cases: cell-based, Plasmodium falciparum
FCR3S1 rosettes = test: Rosette disruption assay, laboratory strain FCR3S1; details: for rosette disrupting effect of heparin disaccharides: not shown; for reduction of rosette disruption efficiency compared to native heparin: modified heparin; for rosette reversion by disaccharide: at 45 mM
From the text: (§1) Parasites and rosetting—Two distinct highly resetting P. Falciparum laboratory stains were used: FCR3S1 (previously named R^+PA1) and TM 284 (isolated in Thailand, 1990). Parasites were cultivated according to standard procedures (Udomsangpetch et al. 1989). Field isolates were obtained from patients attending the Albert Schweitzer Hospital, Lambaréné, Gabon between April and June 1996. […] A venous or capillary blood sample was taken after patients or parents informed consent. Blood was washed three times with RPMI and cultivated according to standard procedures (Udomsangpetch et al. 1989). Assessment for parasite growth and resetting was made every 6–8 hours using a Leitz UV-light microscope. Briefly, an aliquot of parasite culture was mixed with a small amount of acridine orange and the sample was analyzed. Assays were performed on rosetting isolates when the majority of parasites in culture had reached the trophozoite stage. The resetting rate was expressed as the number of infected erythrocytes in rosettes relative to the total number of late stage infected erythrocytes. Three hundred infected cells were counted. Parasitemia was calculated as the number of infected erythrocytes relative to the number of uninfected erythrocytes.
(§2) For laboratory stains, parasite cultures with rosetting rates of 50–70% and parasitemia 5–8% were used Aliquots (12.5–25 μl) of parasite cultures were mixed with equal amounts of sulfated glycoconjugate compound in RPMI in a 96-well microtiter plate, at final concentrations indicated After incubation for 30 minutes at 37° C. assessment for resetting was made as described above. The resetting rate was compared to that of culture mixed with RPMI.

TM 284 rosetting = details: compared to mock treated control cultures
FCR3S1 rosetting = details: compared to mock treated control cultures
FCR3S1.2 rosettes = test: Rosette disruption assay, FCR3S1.2; details: incubated with GAGs for 1 h at 37° C., compared to control culture
Procedure: FIG. 5. Effect of glycosaminoglycans (GAGS) on P. falciparum resetting. […] FCR3S1.2 cultures were incubated with GAGs for 1 h at 37° C. and compared to control culture. Results are the means and standard error of three separate experiments.
The assay was performed essentially as described (Carlson, J. and M. Wahlgren, 1992. Plasmodium falciparum erythrocytes resetting is mediated by promiscuous lectin-like interactions. J. Exp. Med., 176, 1311–1317). The recombinant fission proteins ([…] in PBS of DBL-1-GST or ATS-GST) were added to 25 μl aliquots of a ≈80% rosetting culture of FCR3S1.2 in a micro-titre plate. The mixtures were incubated for 30 min. at 37° C. after which the rosetting rate was scored and compared to mock treated controls after staining with acridine orange.

[1] = tested on: rosettes of wild isolates; test: Rosette disruption assay, wild (patient) isolates; details: for relative effectiveness as rosette disrupter on the whole collection of wild isolates: thirtytwo patient isolates; for rosette disruption of wild / fresh isolates: both groups of isolates
From the text: as §1, §2

TM 284 rosettes = test: Rosette disruption assay, laboratory strain TM 284; details: relative to FCR3S1
From the text: as §1, §2

NC1C(O)OC(CO)C(OC2OC(C(=O)O)=CC(O)C2OS(=O)(=O)O)C1O (stereo not drawn) [III-H, ΔHexA(2-OSO3-GlcN)]
rosette disrupting effect of heparin disaccharides (FCR3S1 rosettes): no rosette disrupting effect

2-O-desulfated heparin
reduction of rosette disruption efficiency compared to native heparin (FCR3S1 rosettes): ~10 fold

chymotrypsin
change in rosetting after treatment of whole cultures, TM 284 (TM 284 rosetting): rosetting was abolished completely | change in rosetting after treatment of whole cultures, FCR3S1 (FCR3S1 rosetting): rosetting was abolished completely

CC(=O)N[C@H]1C(O)O[C@H](COS(=O)(=O)O)[C@@H](O)[C@@H]1O (stereo partly drawn) [N-acetylated glucosamine with an O-sulfate ester at C-6]
rosette disrupting activity of monosaccharides (FCR3S1 rosettes): Some activity

keratan sulfate
disruptive activity of GAGs on FCR3S1.2 rosettes (FCR3S1.2 rosettes): neither chondroitin sulfate A, keratan sulfate, nor hyaluronic acid had any effect

O=S(=O)(O)NC1C(O)OC(CO)C(O)C1O (stereo not drawn) [N-sulfated galactosamine]
rosette disrupting activity of monosaccharides (FCR3S1 rosettes): lacked rosette disrupting activity and none and does not

CC(=O)NC1C(O)OC(CO)C(OC2OC(C(=O)O)=CC(O)C2O)C1O (stereo not drawn) [IV-A, ΔHexA-ClcNAc]
rosette reversion by disaccharide (FCR3S1 rosettes): completely lacked effect

hyaluronic acid
disruptive activity of GAGs on FCR3S1.2 rosettes (FCR3S1.2 rosettes): neither chondroitin sulfate A, keratan sulfate, nor hyaluronic acid had any effect

O=C(O)C1=C[C@H](O)[C@@H](OS(=O)(=O)O)[C@H](O[C@H]2[C@H](O)[C@@H](NS(=O)(=O)O)[C@@H](O)O[C@@H]2COS(=O)(=O)O)O1 [I-S, ΔHexA(2-OSO3)-GlcNSO3(6-OSO3)]
rosette disruption by disaccharide titrated against heparin (FCR3S1 rosettes; 30 mM disaccharide, preliminary experiment): disrupted to the same extent as with heparin at 1 mg/ml

O=S(=O)(O)N[C@H]1C(O)O[C@H](CO)[C@@H](O)[C@@H]1O (stereo partly drawn) [N-sulfated glucosamine]
rosette disrupting activity of monosaccharides (FCR3S1 rosettes): total rosette disruption; also recorded: abolishes rosetting | rosette disrupting activity of monosaccharides (FCR3S1 rosettes; listed as N-sulfated mono-saccharide glucosamine): good anti-rosetting activity

O=C(O)C1=C[C@H](O)[C@@H](O)[C@H](O[C@H]2[C@H](O)[C@@H](NS(=O)(=O)O)C(O)O[C@@H]2CO)O1 (stereo partly drawn) [IV-S, ΔHexA-GlcNSO3]
rosette reversion by disaccharide (FCR3S1 rosettes): complete rosette reversion

N[C@H]1C(O)O[C@H](CO)[C@@H](O[C@@H]2OC(C(=O)O)=C[C@H](O)[C@H]2O)[C@@H]1O (stereo partly drawn) [IV-H, ΔHexA-GlcN]
rosette disrupting effect of heparin disaccharides (FCR3S1 rosettes): no rosette disrupting effect

dermatan sulfate
relative effectiveness as rosette disrupter on the whole collection of wild isolates [1]: intermediate position | sensitivity of TM 284 rosettes to the compound (TM 284 rosettes): relatively higher sensitivity | sensitivity of FCR3S1 rosettes to the compound (FCR3S1 rosettes; 30 minutes at 37° C.): little or no effect

Chondroitin sulfate B
disruptive activity of GAGs on FCR3S1.2 rosettes (FCR3S1.2 rosettes): slight effect only at high concentrations

chondroitin sulfate A
disruptive activity of GAGs on FCR3S1.2 rosettes (FCR3S1.2 rosettes): neither chondroitin sulfate A, keratan sulfate, nor hyaluronic acid had any effect

dextran sulfate
rosette disruption of wild / fresh isolates [1]: much less effective that GAGs in most of the strains | relative effectiveness as rosette disrupter on the whole collection of wild isolates [1]: intermediate position

trypsin
change in rosetting after treatment of whole cultures, TM 284 (TM 284 rosetting): rosetting was abolished completely | change in rosetting after treatment of whole cultures, FCR3S1 (FCR3S1 rosetting): rosetting was abolished completely

N[C@H]1C(O)O[C@H](COS(=O)(=O)O)[C@@H](O[C@@H]2OC(C(=O)O)=C[C@H](O)[C@H]2O)[C@@H]1O (stereo partly drawn) [II-H, ΔHexA-GlcN(6-OSO3)]
rosette disrupting effect of heparin disaccharides (FCR3S1 rosettes): no rosette disrupting effect

fucoidan
rosette disruption of wild / fresh isolates [1]: strong rosette disrupter; also recorded: disrupted rosettes of almost all fresh isolates | relative effectiveness as rosette disrupter on the whole collection of wild isolates [1]: most effective rosette disrupter for most isolates

6-O-desulfated heparin
reduction of rosette disruption efficiency compared to native heparin (FCR3S1 rosettes): ~10 fold
